Assay results as given in patent US12691112B2, “FGFR tyrosine kinase inhibitors for the treatment of urothelial carcinoma” (Janssen Pharmaceutica NV, priority 2019, dated 2026).
Read-outs that look alike come from different tables or passages of the source.

System: metastatic or surgically unresectable urothelial cancer harboring select FGFR genetic alterations
Conditions: chemo relapsed/refractory
Text: The study comprises a Screening Phase (molecular screening at any time prior to first dose and study screening within 30 days of first dose), a treatment phase, and a post-treatment follow-up phase. The treatment phase comprises the period from first dose until the end-of-treatment visit. The follow-up phase extends until the subject has died, withdraws consent, is lost to follow-up, or the end of study, whichever comes first.
Included patients were adults with measurable urothelial cancer per Response Evaluation Criteria in Solid Tumors version 1.1.
Patients were required to have at least 1 FGFR2/FGFR3 mutation or fusion per central lab testing of RNA from formalin-fixed, paraffin-embedded tumor samples, using a custom reverse transcriptase polymerase chain reaction assay.
Patients were contacted every 12 weeks for survival assessment.
The study was designed to enroll 180 patients with specified FGFR alterations. Of these, ≥88 were required in the selected regimen. […] Responses were assessed by investigators and an independent radiological review committee. Progression-free survival and overall survival were estimated using Kaplan-Meier product limit method. Data from patients who were progression free and alive or with unknown status were censored at last tumor assessment. Efficacy end points were analysed at primary analysis cut-off.

[1] = 6 mg QD, Any FGFR alterations, n=73
[2] = 6 mg QD, FGFR fusions (excluding mutations), 2 responders
[3] = 6 mg QD, FGFR fusions (excluding mutations), n=10
[4] = 6 mg QD, FGFR mutations (excluding fusions), 22 responders
[5] = 6 mg QD, FGFR mutations (excluding fusions), n=59
[6] = 6 mg QD, FGFR mutations and fusions, 3 responders
[7] = 6 mg QD, FGFR mutations and fusions, n=4
[8] = 6 mg QD, Fusion: FGFR2-CASP7/FGFR3-BAIAP2L1, n=1
[9] = 6 mg QD, Mutation and fusion: FGFR3-G370C/FGFR2-BICC1, n=1
[10] = 6 mg QD, Mutation and fusion: FGFR3-G370C/FGFR3-TACC3 V1, n=1
[11] = 6 mg QD, Mutation and fusion: FGFR3-R248C/FGFR3-S249C/FGFR3-TACC3 V1, n=1
[12] = 6 mg QD, Mutation and fusion: FGFR3-R248C/FGFR3-TACC3 V1, n=1
[13] = 6 mg QD, Mutation: FGFR3-G370C/FGFR3-S249C, n=1
[14] = 6 mg QD, Mutation: FGFR3-R248C/FGFR3-Y373C, n=1
[15] = 8 mg QD, Any FGFR alterations, n=87
[16] = 8 mg QD, FGFR fusions (excluding mutations), 4 responders
[17] = 8 mg QD, FGFR fusions (excluding mutations), n=23
[18] = 8 mg QD, FGFR mutations (excluding fusions), 31 responders
[19] = 8 mg QD, FGFR mutations (excluding fusions), n=64
[20] = 8 mg QD, Fusion: FGFR2-CASP7/FGFR3-TACC3 V3, n=1
[21] = 10 mg 7 on/7 off, Any FGFR alterations, n=29
[22] = 10 mg 7 on/7 off, FGFR fusions (excluding mutations), n=2
[23] = 10 mg 7 on/7 off, FGFR mutations (excluding fusions), 5 responders
[24] = 10 mg 7 on/7 off, FGFR mutations (excluding fusions), n=24
[25] = 10 mg 7 on/7 off, FGFR mutations and fusions, 1 responder
[26] = 10 mg 7 on/7 off, FGFR mutations and fusions, n=3
[27] = 10 mg 7 on/7 off, Mutation and fusion: FGFR3-R248C/FGFR3-TACC3 V1, n=1
[28] = 10 mg 7 on/7 off, Mutation and fusion: FGFR3-S249C/FGFR3-BAIAP2L1, n=1
[29] = 10 mg 7 on/7 off, Mutation and fusion: FGFR3-S249C/FGFR3-Y373C/FGFR2-CASP7/FGFR3-BAIAP2L1/FGFR3-TACC3 V1/FGFR3-TACC3 V3, n=1

COc1cc(OC)cc(N(CCNC(C)C)c2ccc3ncc(-c4cnn(C)c4)nc3c2)c1 [erdafitinib, N-(3,5-dimethoxy-phenyl)-N′-(1-methylethyl)-N-[3-(1-methyl-1H-pyrazol-4-yl)quinoxalin-6-yl]ethane-1,2-diamine]
Confirmed complete response (CR) [1]: 3 (4.1%) | Confirmed partial response (PR) [1]: 24 (32.9%) | Disease control rate (CR + PR + SD) [1]: 55 (75.3%) | Inevaluable [1]: 4 (5.5%) | Progressive disease (PD) [1]: 14 (19.2%) | 6-month progression-free survival rate (95% CI), among responders [2]: 0.50 (0.01, 0.91) | 9-month progression-free survival rate (95% CI), among responders [2]: 0.50 (0.01, 0.91) | 12-month progression-free survival rate (95% CI), among responders [2]: 0.50 (0.01, 0.91) | Confirmed complete response (CR) [3]: 0% | Confirmed partial response (PR) [3]: 2 (20.0%) | Disease control rate (CR + PR + SD) [3]: 9 (90.0%) | Inevaluable [3]: 1 (10.0%) | Objective response rate (CR + PR) [3]: 2 (20.0%) | Progressive disease (PD) [3]: 0% | 6-month progression-free survival rate (95% CI), among responders [4]: 0.41 (0.21, 0.60) | 9-month progression-free survival rate (95% CI), among responders [4]: 0.27 (0.11, 0.46) | 12-month progression-free survival rate (95% CI), among responders [4]: 0.18 (0.06, 0.36) | Confirmed complete response (CR) [5]: 2 (3.4%) | Confirmed partial response (PR) [5]: 20 (33.9%) | Disease control rate (CR + PR + SD) [5]: 43 (72.9%) | Inevaluable [5]: 2 (3.4%) | Objective response rate (CR + PR) [5]: 22 (37.3%) | Progressive disease (PD) [5]: 14 (23.7%) | 6-month progression-free survival rate (95% CI), among responders [6]: 0.67 (0.05, 0.95) | 9-month progression-free survival rate (95% CI), among responders [6]: 0.67 (0.05, 0.95) | 12-month progression-free survival rate (95% CI), among responders [6]: 0.33 (0.01, 0.77) | Confirmed complete response (CR) [7]: 1 (25.0%) | Confirmed partial response (PR) [7]: 2 (50.0%) | Disease control rate (CR + PR + SD) [7]: 3 (75.0%) | Inevaluable [7]: 1 (25.0%) | Objective response rate (CR + PR) [7]: 3 (75.0%) | Progressive disease (PD) [7]: 0% | Confirmed complete response (CR) [8]: 0% | Confirmed partial response (PR) [8]: 0% | Disease control rate (CR + PR + SD) [8]: 1 (100.0%) | Inevaluable [8]: 0% | Objective response rate (CR + PR) [8]: 0% | Progressive disease (PD) [8]: 0% | Confirmed complete response (CR) [9]: 1 (100.0%) | Confirmed partial response (PR) [9]: 0% | Disease control rate (CR + PR + SD) [9]: 1 (100.0%) | Inevaluable [9]: 0% | Objective response rate (CR + PR) [9]: 1 (100.0%) | Progressive disease (PD) [9]: 0% | Confirmed complete response (CR) [10]: 0% | Confirmed partial response (PR) [10]: 1 (100.0%) | Disease control rate (CR + PR + SD) [10]: 1 (100.0%) | Inevaluable [10]: 0% | Objective response rate (CR + PR) [10]: 1 (100.0%) | Progressive disease (PD) [10]: 0% | Confirmed complete response (CR) [11]: 0% | Confirmed partial response (PR) [11]: 1 (100.0%) | Disease control rate (CR + PR + SD) [11]: 1 (100.0%) | Inevaluable [11]: 0% | Objective response rate (CR + PR) [11]: 1 (100.0%) | Progressive disease (PD) [11]: 0% | Confirmed complete response (CR) [12]: 0% | Confirmed partial response (PR) [12]: 0% | Disease control rate (CR + PR + SD) [12]: 0% | Inevaluable [12]: 1 (100.0%) | Objective response rate (CR + PR) [12]: 0% | Progressive disease (PD) [12]: 0% | Confirmed complete response (CR) [13]: 0% | Confirmed partial response (PR) [13]: 0% | Disease control rate (CR + PR + SD) [13]: 1 (100.0%) | Inevaluable [13]: 0% | Objective response rate (CR + PR) [13]: 0% | Progressive disease (PD) [13]: 0% | Confirmed complete response (CR) [14]: 0% | Confirmed partial response (PR) [14]: 1 (100.0%) | Disease control rate (CR + PR + SD) [14]: 1 (100.0%) | Inevaluable [14]: 0% | Objective response rate (CR + PR) [14]: 1 (100.0%) | Progressive disease (PD) [14]: 0% | Disease control rate (CR + PR + SD) [15]: 69 (79.3%) | Inevaluable [15]: 2 (2.3%) | Progressive disease (PD) [15]: 16 (18.4%) | 6-month progression-free survival rate (95% CI), among responders [16]: 0.50 (0.06, 0.84) | 9-month progression-free survival rate (95% CI), among responders [16]: 0.50 (0.06, 0.84) | Confirmed complete response (CR) [17]: 0% | Confirmed partial response (PR) [17]: 4 (17.4%) | Disease control rate (CR + PR + SD) [17]: 15 (65.2%) | Inevaluable [17]: 1 (4.3%) | Progressive disease (PD) [17]: 7 (30.4%) | 6-month progression-free survival rate (95% CI), among responders [18]: 0.42 (0.24, 0.59) | 9-month progression-free survival rate (95% CI), among responders [18]: 0.19 (0.07, 0.37) | 12-month progression-free survival rate (95% CI), among responders [18]: 0.19 (0.07, 0.37) | Confirmed complete response (CR) [19]: 3 (4.7%) | Confirmed partial response (PR) [19]: 28 (43.8%) | Disease control rate (CR + PR + SD) [19]: 54 (84.4%) | Inevaluable [19]: 1 (1.6%) | Progressive disease (PD) [19]: 9 (14.1%) | Confirmed complete response (CR) [20]: 0% | Confirmed partial response (PR) [20]: 0% | Disease control rate (CR + PR + SD) [20]: 0% | Inevaluable [20]: 1 (100.0%) | Objective response rate (CR + PR) [20]: 0% | Progressive disease (PD) [20]: 0% | Confirmed complete response (CR) [21]: 1 (3.4%) | Confirmed partial response (PR) [21]: 5 (17.2%) | Disease control rate (CR + PR + SD) [21]: 23 (79.3%) | Inevaluable [21]: 2 (6.9%) | Progressive disease (PD) [21]: 4 (13.8%) | Confirmed complete response (CR) [22]: 0% | Confirmed partial response (PR) [22]: 0% | Disease control rate (CR + PR + SD) [22]: 1 (50.0%) | Inevaluable [22]: 0% | Objective response rate (CR + PR) [22]: 0% | Progressive disease (PD) [22]: 1 (50.0%) | 6-month progression-free survival rate (95% CI), among responders [23]: 0.80 (0.20, 0.97) | 9-month progression-free survival rate (95% CI), among responders [23]: 0.80 (0.20, 0.97) | 12-month progression-free survival rate (95% CI), among responders [23]: 0.60 (0.13, 0.88) | Confirmed complete response (CR) [24]: 1 (4.2%) | Confirmed partial response (PR) [24]: 4 (16.7%) | Disease control rate (CR + PR + SD) [24]: 20 (83.3%) | Inevaluable [24]: 2 (8.3%) | Objective response rate (CR + PR) [24]: 5 (20.8%) | Progressive disease (PD) [24]: 2 (8.3%) | 6-month progression-free survival rate (95% CI), among responders [25]: 0 (NE, NE) | 9-month progression-free survival rate (95% CI), among responders [25]: 0 (NE, NE) | 12-month progression-free survival rate (95% CI), among responders [25]: 0 (NE, NE) | Confirmed complete response (CR) [26]: 0% | Confirmed partial response (PR) [26]: 1 (33.3%) | Disease control rate (CR + PR + SD) [26]: 2 (66.7%) | Inevaluable [26]: 0% | Objective response rate (CR + PR) [26]: 1 (33.3%) | Progressive disease (PD) [26]: 1 (33.3%) | Confirmed complete response (CR) [27]: 0% | Confirmed partial response (PR) [27]: 1 (100.0%) | Disease control rate (CR + PR + SD) [27]: 1 (100.0%) | Inevaluable [27]: 0% | Objective response rate (CR + PR) [27]: 1 (100.0%) | Progressive disease (PD) [27]: 0% | Confirmed complete response (CR) [28]: 0% | Confirmed partial response (PR) [28]: 0% | Disease control rate (CR + PR + SD) [28]: 0% | Inevaluable [28]: 0% | Objective response rate (CR + PR) [28]: 0% | Progressive disease (PD) [28]: 1 (100.0%) | Confirmed complete response (CR) [29]: 0% | Confirmed partial response (PR) [29]: 0%
